Measurements reported in article PMC8179358, “An explicitly designed paratope of amyloid-β prevents neuronal apoptosis in vitro and hippocampal damage in rat brain” (Chemical Science, 2020).
*1 amine or outer side, *2 acyl side, *3 side chain or, on linkers, in order; H or OH if unused. Where a SMILES comes first, the peptide text is derived from it. Bridges are numbered along the chain shown (N, C = ends). Roman numbers before positions name the chains, in order. [ ]: non-standard residue; d: D form. X1 = O=C(CCCCC(=O)[*:2])NCCCOCCOCCOCCCNC(=O)CCC(=O)[*:1]; NMeF = CN[C@@H](Cc1ccccc1)C(=O)O; NMeL = CN[C@@H](CC(C)C)C(=O)O; NMeV = CN[C@H](C(=O)O)C(C)C

Legend:
SH-SY5Y cells = test: MTT assay, self-toxicity of SP1; type: cell-based, human; conditions: 0.5-10 μM, 24 h
Protocol: 1.3. Methods for in vitro cell-based experiments
The human neuroblastoma cell line SH-SY5Y was obtained from the National Centre for Cell Science (NCCS, Pune, India). The cells were grown in DMEM, and Ham’s F12 nutrient mixture (DMEM/F12; 1:1) supplemented with 10% fetal bovine serum (FBS; Gibco, USA), 50 U/ml penicillin, 100 μg/ml streptomycin and incubated in a humidified atmosphere of 5% CO2 at 37°C. All experiments were carried […]
Each experiment was performed
Methylthiazol tetrazolium (MTT) reduction assay was used to measure the viability of cells.10 The SH-SY5Y cells were seeded at a density of 1.5 × 10^4 cells/well in a 96 well plate. To assess self-toxicity, cells […]
period 20µl of MTT reagent (5mg/ml in DPBS) was added to each well and incubated in a humidified atmosphere of 5% CO2 at 37°C for 4h. Formazan crystals (purple) are formed by the metabolically active cells by cleaving the yellow tetrazolium salt. After the incubation period, the MTT solution was aspirated, and 150µL of dimethyl sulfoxide (DMSO) was added to each well to dissolve the formazan precipitate.

Sprague-Dawley rats = test: Sub-chronic toxicity, hematological and biochemical parameters; type: in vivo; conditions: for Basophil / Total Bilirubin / Creatinine / Eosinophil / Monocyte / RBC / WBC / Serum Urea / SGPT / Lymphocyte / SGOT / Neutrophil / Glucose / ALP: iv, 42 days, n = 8; for Basophil: control 0.00±0.00; for Total Bilirubin: control 0.58±0.04; for Creatinine: control 0.73±0.02; for Eosinophil: control 3.12±0.61; for Monocyte: control 3.20±0.99; for RBC: control 4.77±1.54; for WBC: control 6.60±1.20; for Serum Urea: control 26±1.45; for SGPT: control 38.0±1.70; for Lymphocyte: control 38.2±3.25; for SGOT: control 52.0±2.21; for Neutrophil: control 56.6±2.31; for Glucose: control 103.0±1.34; for ALP: control 111.0±3.46
Protocol: The tabulated biochemical profile (novel biomarkers of the liver and kidney) corroborates the safety charms of SP1 for further in vivo studies.
24 male Sprague Dawley rats were randomly divided into three groups: control, SP1A, and SP1B. Each group contains 8 animals and administration of SP1was performed for 42 days through a tail vein by the following schedule: Control: Without any treatment.
Rats were sacrificed after 42 days of injection schedule and blood was collected for hematological and biochemical estimations. For the histopathological study, the liver and kidney were also isolated very carefully and checked for cytoarchitectural changes if any.
The body weights and volumes of SP1 to be administered were recorded for each animal. Prior to injection, the tail of the animal was warmed by using warm water circulating pad placed under the cage for 5-10 minutes to dilate the veins. A 25-gauge needle was inserted into the vein towards the direction of the head. The needle and syringe were kept parallel to the tail. […]
µg/kg and 500 µg/kg) was injected into the tail slowly. The needle was removed very carefully and gentle compression applied until bleeding was stopped. Animals were returned to their home cage.
The biochemical parameters including blood glucose, serum urea, creatinine, total bilirubin, serum glutamic oxaloacetic transaminase (SGOT), serum glutamic pyruvic transaminase (SGPT), and alkaline phosphatase (ALP) were analyzed for sub-chronic toxicity of SP1by using commercially available diagnostic test kits (Crest Biosystems kits, India). Blood parameters like red blood cells, white blood cells, hemoglobin, neutrophil, lymphocyte, eosinophil, monocyte, and basophil were estimated using standard kits by following the manufacturer’s manual.

[1] = SP1 500 µg/kg, *P<0.01 vs control

Compound: CC(C)C[C@H](NC(=O)CNC(=O)CCC(=O)NCCCOCCOCCOCCCNC(=O)CCCCC(=O)NCC(=O)N(C)[C@@H](CC(C)C)C(=O)N[C@H](C(=O)N(C)[C@@H](Cc1ccccc1)C(=O)N[C@@H](Cc1ccccc1)C(=O)N[C@@H](C)C(N)=O)C(C)C)C(=O)N(C)[C@H](C(=O)N[C@@H](Cc1ccccc1)C(=O)N(C)[C@@H](Cc1ccccc1)C(=O)N[C@@H](C)C(N)=O)C(C)C [SP1] (I: GL[NMeV]F[NMeF]A-NH2 / II: G[NMeL]V[NMeF]FA-NH2; linker I:N-II:N via X1)
- cytotoxicity of SP1 alone (SH-SY5Y cells): did not observe any discernible cytotoxicity even at the maximum concentrations (10 μM)
- hematological and biochemical parameters, summary (Sprague-Dawley rats; 100 μg kg−1, 42 days): did not find any severe changes in the hematological and biochemical parameters
- hematological and biochemical parameters, summary (Sprague-Dawley rats; 500 μg kg−1, 42 days): Almost similar observations in rats treated with SP1 (500 μg kg^−1) were revealed, except for monocyte and SGOT levels
- Basophil (Sprague-Dawley rats; SP1 100 µg/kg): 0.00±0.00%
- Total Bilirubin (Sprague-Dawley rats; SP1 100 µg/kg): 0.54 ± 0.09 mg/dL
- Creatinine (Sprague-Dawley rats; SP1 100 µg/kg): 0.69 ± 0.05 mg/dL
- Eosinophil (Sprague-Dawley rats; SP1 100 µg/kg): 2.62±0.82%
- Monocyte (Sprague-Dawley rats; SP1 100 µg/kg): 3.8±1.08%
- RBC (Sprague-Dawley rats; SP1 100 µg/kg): 5.20±1.23 10^6/mm3
- WBC (Sprague-Dawley rats; SP1 100 µg/kg): 5.80±1.34 10^3/mm3
- Serum Urea (Sprague-Dawley rats; SP1 100 µg/kg): 32.0 ± 1.83 mg/dL
- SGPT (Sprague-Dawley rats; SP1 100 µg/kg): 44.0±1.84 IU/L
- Lymphocyte (Sprague-Dawley rats; SP1 100 µg/kg): 42.3±2.92%
- SGOT (Sprague-Dawley rats; SP1 100 µg/kg): 55.0±2.94 IU/L
- Neutrophil (Sprague-Dawley rats; SP1 100 µg/kg): 58.00±2.54%
- Glucose (Sprague-Dawley rats; SP1 100 µg/kg): 110.0 ± 1.36 mg/dL
- ALP (Sprague-Dawley rats; SP1 100 µg/kg): 120.0±3.68 IU/L
- Basophil (Sprague-Dawley rats; SP1 500 µg/kg): 0.00±0.00%
- Total Bilirubin (Sprague-Dawley rats; SP1 500 µg/kg): 0.72 ± 0.06 mg/dL
- Creatinine (Sprague-Dawley rats; SP1 500 µg/kg): 0.86 ± 0.03 mg/dL
- Eosinophil (Sprague-Dawley rats; SP1 500 µg/kg): 2.72±0.53%
- Monocyte (Sprague-Dawley rats; [1]): 5.20±1.24%
- RBC (Sprague-Dawley rats; SP1 500 µg/kg): 5.51±1.38 10^6/mm3
- WBC (Sprague-Dawley rats; SP1 500 µg/kg): 6.21±1.15 10^3/mm3
- Serum Urea (Sprague-Dawley rats; SP1 500 µg/kg): 29.0 ± 1.66 mg/dL
- SGPT (Sprague-Dawley rats; SP1 500 µg/kg): 40.32±1.63 IU/L
- Lymphocyte (Sprague-Dawley rats; SP1 500 µg/kg): 40.5±3.12%
- SGOT (Sprague-Dawley rats; [1]): 64.2±2.56 IU/L
- Neutrophil (Sprague-Dawley rats; SP1 500 µg/kg): 62.10±2.42%
- Glucose (Sprague-Dawley rats; SP1 500 µg/kg): 105.0 ± 1.28 mg/dL
- ALP (Sprague-Dawley rats; SP1 500 µg/kg): 116.0±2.15 IU/L
